Experimental data taken from ChEMBL document CHEMBL1201862, “PubChem BioAssay data set” (2004).
The source made the active and inactive calls.

Key:
[1] = cytotoxicity toward DRD oncogenic fibroblasts, dose response, cell-based, non-viral oncogenic, luminescence (AID 1934); format: functional; conditions: Homo sapiens
Genome polyprotein = Genome polyprotein (dengue virus type 2, UniProt P29990); test: Dengue-2 NS5 methyltransferase inhibitors, primary screen, biochemical, confirmation dose response (AID 588689); format: functional
Genome polyprotein, sequence (P29990 2492-3391 limits assumed): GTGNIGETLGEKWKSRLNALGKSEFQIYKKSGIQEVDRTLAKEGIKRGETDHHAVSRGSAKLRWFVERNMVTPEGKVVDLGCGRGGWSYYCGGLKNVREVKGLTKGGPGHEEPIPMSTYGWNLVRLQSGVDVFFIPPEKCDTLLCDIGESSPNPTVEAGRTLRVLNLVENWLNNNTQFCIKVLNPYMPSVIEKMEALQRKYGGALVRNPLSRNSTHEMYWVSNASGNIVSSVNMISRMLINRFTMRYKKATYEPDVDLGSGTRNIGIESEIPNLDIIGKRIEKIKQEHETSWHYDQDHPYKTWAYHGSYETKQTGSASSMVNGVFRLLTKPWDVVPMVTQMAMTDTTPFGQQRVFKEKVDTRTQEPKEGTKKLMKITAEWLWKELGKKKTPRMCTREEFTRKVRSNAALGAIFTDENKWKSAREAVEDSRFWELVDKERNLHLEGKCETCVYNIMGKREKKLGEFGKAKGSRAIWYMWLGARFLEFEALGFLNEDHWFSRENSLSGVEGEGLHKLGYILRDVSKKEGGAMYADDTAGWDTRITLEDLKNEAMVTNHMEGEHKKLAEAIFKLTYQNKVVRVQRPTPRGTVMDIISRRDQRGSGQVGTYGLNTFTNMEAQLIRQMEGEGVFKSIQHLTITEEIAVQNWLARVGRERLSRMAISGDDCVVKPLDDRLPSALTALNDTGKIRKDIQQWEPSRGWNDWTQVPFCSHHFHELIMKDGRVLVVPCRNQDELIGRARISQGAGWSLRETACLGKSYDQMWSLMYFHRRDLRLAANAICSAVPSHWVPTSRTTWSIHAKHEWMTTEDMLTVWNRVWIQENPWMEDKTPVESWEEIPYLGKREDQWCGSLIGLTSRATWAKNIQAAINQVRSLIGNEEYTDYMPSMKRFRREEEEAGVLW

BJ [2] = test: cells; format: functional, cell-based; conditions: Homo sapiens
BJ [3] = test: cytotoxicity toward BJ-TERT-LT-ST fibroblasts, dose response, cell-based, RAS-independent, luminescence (AID 1935); format: functional; conditions: Homo sapiens;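 note: BJ fibroblasts immortalized with TERT plus LT and ST oncogenes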
[4] = molecular target: Envelope glycoprotein gp160 (Human immunodeficiency virus 1, UniProt Q6QLK5); test: inhibitors of HIV fusion peptide binding, primary screen, biochemical, uHTS, fluorescence dequenching (AID 1986)
Envelope glycoprotein gp160, sequence (Q6QLK5 whole entry, the tested form may be a part): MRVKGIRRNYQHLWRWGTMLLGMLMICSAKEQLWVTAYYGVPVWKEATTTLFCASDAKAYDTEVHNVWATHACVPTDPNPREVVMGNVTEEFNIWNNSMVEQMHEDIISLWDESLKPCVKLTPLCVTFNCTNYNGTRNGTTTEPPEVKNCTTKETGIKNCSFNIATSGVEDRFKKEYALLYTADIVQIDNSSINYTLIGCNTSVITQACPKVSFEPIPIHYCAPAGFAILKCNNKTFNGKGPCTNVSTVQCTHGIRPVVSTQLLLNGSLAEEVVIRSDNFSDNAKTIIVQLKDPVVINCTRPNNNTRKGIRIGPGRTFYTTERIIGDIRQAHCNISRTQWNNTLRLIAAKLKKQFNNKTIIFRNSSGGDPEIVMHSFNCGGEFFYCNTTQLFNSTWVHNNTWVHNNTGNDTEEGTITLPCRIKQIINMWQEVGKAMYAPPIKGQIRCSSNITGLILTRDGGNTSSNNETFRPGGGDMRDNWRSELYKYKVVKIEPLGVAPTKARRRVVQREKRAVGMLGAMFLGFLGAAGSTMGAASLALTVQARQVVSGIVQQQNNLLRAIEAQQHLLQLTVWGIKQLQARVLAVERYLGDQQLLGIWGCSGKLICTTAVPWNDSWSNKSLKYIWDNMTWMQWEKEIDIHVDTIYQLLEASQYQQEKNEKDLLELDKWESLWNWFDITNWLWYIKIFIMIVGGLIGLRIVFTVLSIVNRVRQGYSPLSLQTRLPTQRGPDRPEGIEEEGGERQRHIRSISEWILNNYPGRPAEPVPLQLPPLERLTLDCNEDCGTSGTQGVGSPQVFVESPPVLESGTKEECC

BJ [5] = test: cytotoxicity toward BJ-TERT fibroblasts, dose response, cell-based, RAS-independent, luminescence (AID 1933); format: functional; conditions: Homo sapiens
Tumor necrosis factor = Tumor necrosis factor (Homo sapiens, UniProt P01375); test: TNFa-triggered NF-kB activation inhibitors, SAR follow-up, cell-based, revised (AID 2337); format: functional
Tumor necrosis factor, sequence (P01375 whole entry): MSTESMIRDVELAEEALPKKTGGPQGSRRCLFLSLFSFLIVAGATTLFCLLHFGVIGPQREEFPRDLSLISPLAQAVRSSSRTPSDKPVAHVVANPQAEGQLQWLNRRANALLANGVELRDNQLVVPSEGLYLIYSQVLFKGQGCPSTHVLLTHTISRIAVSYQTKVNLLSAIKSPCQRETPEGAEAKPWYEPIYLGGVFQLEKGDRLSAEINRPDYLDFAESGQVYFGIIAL

HEK293 [6] = test: cells; format: functional, cell-based; conditions: Homo sapiens
HEK293 [7] = test: cells; format: functional, cell-based; conditions: Homo sapiens; remark: listed apart in the source
HEK293 [8] = test: NOD1 signaling inhibitors, primary screen, cell-based, luminescence, uHTS (AID 1578); format: functional; conditions: Homo sapiens
[9] = molecular target: Nucleotide-binding oligomerization domain-containing protein 2 (Homo sapiens, UniProt Q9HC29); test: PubChem AID 2334; format: functional
[10] = molecular target: T1, Nucleotide-binding oligomerization domain-containing protein 1 (Homo sapiens, UniProt Q9Y239); test: NOD1 signaling inhibitors, SAR follow-up, revised (AID 2333); format: functional
T1 sequence (Q9Y239 whole entry): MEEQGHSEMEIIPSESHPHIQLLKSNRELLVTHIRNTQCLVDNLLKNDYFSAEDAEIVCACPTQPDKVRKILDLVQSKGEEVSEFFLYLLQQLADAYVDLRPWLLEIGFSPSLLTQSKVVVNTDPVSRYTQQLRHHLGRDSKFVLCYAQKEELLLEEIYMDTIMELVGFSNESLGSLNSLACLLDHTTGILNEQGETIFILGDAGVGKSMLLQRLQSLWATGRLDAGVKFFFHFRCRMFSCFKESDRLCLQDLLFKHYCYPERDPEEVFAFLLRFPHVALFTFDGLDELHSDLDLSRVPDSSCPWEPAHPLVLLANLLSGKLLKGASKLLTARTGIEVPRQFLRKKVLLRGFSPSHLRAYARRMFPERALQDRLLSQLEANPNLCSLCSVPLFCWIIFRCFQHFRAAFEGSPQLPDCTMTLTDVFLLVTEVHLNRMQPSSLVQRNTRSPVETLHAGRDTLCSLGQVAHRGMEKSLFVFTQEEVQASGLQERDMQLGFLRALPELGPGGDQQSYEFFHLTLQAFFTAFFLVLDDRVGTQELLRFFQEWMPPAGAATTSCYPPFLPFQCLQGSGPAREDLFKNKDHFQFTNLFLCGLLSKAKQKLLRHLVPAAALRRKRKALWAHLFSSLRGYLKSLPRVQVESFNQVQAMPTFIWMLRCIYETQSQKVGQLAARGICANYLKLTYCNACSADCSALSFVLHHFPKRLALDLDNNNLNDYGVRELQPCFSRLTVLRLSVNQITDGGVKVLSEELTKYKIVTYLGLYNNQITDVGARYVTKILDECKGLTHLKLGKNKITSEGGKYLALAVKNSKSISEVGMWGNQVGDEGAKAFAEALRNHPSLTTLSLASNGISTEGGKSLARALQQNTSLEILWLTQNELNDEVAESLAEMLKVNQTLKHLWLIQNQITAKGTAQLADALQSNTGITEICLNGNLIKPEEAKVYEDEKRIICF

HEK293 [11] = test: NOD2 signaling inhibitors in MDP-stimulated cells, cell-based, uHTS, luminescence (AID 2001); format: functional; conditions: Homo sapiens
HEK293 [12] = test: cells; conditions: Homo sapiens
[13] = molecular target: T2, Intestinal-type alkaline phosphatase (Homo sapiens, UniProt P09923); test: human intestinal alkaline phosphatase activators, dose response, biochemical, luminescence, uHTS hits (AID 463120); format: functional
T2 sequence (P09923 whole entry): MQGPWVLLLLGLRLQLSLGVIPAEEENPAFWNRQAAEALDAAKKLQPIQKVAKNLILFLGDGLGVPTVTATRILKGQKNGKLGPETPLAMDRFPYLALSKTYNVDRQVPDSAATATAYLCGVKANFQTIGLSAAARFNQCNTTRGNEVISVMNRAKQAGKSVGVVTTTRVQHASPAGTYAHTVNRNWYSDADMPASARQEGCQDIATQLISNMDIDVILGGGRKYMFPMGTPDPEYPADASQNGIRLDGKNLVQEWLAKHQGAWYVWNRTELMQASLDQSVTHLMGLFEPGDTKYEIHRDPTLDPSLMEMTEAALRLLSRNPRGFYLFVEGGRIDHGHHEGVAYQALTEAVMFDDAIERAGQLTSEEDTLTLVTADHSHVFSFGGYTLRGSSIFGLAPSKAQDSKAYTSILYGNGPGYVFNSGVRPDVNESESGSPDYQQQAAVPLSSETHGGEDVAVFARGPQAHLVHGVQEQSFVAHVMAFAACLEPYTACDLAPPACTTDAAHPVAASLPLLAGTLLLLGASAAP

[14] = molecular target: T3, Alkaline phosphatase, tissue-nonspecific isozyme (Homo sapiens, UniProt P05186); test: TNAP enzyme activators, dose response, selectivity assay for human IAP activator project, biochemical, TNAP isozyme, human IAP uHTS hits (AID 488886); format: functional;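 note: potency of compounds raising TNAP activity as a selectivity check on IAP activators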
T3 sequence (P05186 whole entry): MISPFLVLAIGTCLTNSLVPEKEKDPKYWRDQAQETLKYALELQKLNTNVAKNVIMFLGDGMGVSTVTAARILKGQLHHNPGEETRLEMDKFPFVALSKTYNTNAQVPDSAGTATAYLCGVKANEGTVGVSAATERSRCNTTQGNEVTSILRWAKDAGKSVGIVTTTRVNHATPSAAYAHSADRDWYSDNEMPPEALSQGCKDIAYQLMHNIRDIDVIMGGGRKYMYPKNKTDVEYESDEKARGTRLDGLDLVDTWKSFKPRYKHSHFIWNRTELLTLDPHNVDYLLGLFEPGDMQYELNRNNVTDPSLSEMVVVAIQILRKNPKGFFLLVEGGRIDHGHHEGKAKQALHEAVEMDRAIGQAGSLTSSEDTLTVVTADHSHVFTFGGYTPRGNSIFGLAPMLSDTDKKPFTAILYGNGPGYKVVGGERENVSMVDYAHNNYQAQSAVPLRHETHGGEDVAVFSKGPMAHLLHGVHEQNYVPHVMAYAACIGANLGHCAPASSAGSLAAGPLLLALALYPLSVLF

[15] = molecular target: Intestinal-type alkaline phosphatase (Mus musculus, UniProt P24822); test: PubChem AID 488874; format: functional
[16] = molecular target: T2, Intestinal-type alkaline phosphatase; test: human IAP activators, dose response, biochemical, luminescent, uHTS hits, set 2 (AID 488817); format: functional;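 note: potency of activators that raise enzyme activity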
[17] = control 3'UTR Renilla luciferase suppression, dose response, counter-screen for Shn3 inhibitor project, cell-based, Clone20-Shn3RL, cherry-picked (AID 624133); format: functional
[18] = HepG2 cell cytotoxicity, dose response, cytotoxicity control for Shn3 inhibitor project, CellTiter-Glo, cherry-picked (AID 624134); format: functional, cell-based
[19] = Fluorescence-based cell-based high throughput dose response assay for inhibitors of the interaction of nucleotide-binding oligomerization domain containing 2 (NOD2) and the receptor-interacting serine-threonine kinase 2 (RIPK2).; format: functional; conditions: Homo sapiens
[20] = molecular target: Luciferin 4-monooxygenase (Photinus pyralis, UniProt P08659); test: firefly luciferase enzyme inhibitors, dose response, biochemical, luminescence (AID 1891)
[21] = Luminescence Cell-Based Dose Confirmation HTS to Identify Inhibitors of Platelet Dense Granule Release. [Related pubchem assays: 1663 (Primary HTS), 1678 (Summary of Project)]; format: functional
Saccharomyces cerevisiae = test: NALP1 inhibitor project selectivity study, Caspase-1/ASC signal blockade IC50 in S. cerevisiae (AID 488863); format: functional, organism-based
[22] = Shn3 3'UTR reporter inhibitors, dose response, cell-based, Clone20 osteoblasts, firefly luciferase, cherry-picked (AID 624132); format: functional;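 note: firefly luciferase luminescence from reporter carrying the Shn3 3'UTR in osteoblasts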
Beta-galactosidase = Beta-galactosidase (Escherichia coli, UniProt Q8VNN2); test: beta-galactosidase enzyme inhibitors and activators, dose response, artefact control for CCR6 antagonist project, biochemical, E. coli enzyme, set 3 (AID 504712); format: functional
Beta-galactosidase, sequence (Q8VNN2 whole entry): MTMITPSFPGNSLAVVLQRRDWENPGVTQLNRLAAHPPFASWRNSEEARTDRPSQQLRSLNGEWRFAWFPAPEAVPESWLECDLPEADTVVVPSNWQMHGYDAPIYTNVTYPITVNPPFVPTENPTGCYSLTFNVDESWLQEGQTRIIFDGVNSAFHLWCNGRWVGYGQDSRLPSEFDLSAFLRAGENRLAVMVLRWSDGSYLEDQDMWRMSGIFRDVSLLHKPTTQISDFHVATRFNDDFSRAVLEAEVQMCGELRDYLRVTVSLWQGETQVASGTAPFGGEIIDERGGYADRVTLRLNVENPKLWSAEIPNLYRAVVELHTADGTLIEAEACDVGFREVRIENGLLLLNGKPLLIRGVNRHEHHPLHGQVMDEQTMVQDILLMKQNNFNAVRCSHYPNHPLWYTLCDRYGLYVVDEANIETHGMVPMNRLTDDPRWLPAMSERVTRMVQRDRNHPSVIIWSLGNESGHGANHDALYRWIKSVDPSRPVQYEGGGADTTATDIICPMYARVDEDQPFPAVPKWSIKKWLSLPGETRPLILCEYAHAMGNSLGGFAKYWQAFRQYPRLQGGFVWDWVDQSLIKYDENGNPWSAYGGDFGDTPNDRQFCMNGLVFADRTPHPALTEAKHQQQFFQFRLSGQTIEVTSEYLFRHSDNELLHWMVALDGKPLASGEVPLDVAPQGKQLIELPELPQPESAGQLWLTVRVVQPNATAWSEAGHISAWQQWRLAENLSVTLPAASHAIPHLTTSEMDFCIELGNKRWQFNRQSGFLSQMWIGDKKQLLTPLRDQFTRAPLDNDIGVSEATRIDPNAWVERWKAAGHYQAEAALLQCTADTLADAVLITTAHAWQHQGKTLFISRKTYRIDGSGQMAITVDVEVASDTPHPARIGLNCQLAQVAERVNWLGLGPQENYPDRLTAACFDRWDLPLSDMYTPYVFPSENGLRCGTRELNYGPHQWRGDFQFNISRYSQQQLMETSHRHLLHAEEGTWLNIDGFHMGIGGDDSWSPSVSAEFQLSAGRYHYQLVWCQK

Beta Lactamase = Beta Lactamase (Pseudomonas aeruginosa, UniProt Q932Y6); test: beta-lactamase reporter inhibitor potency, dose response, artefact control for NOD2-RIPK2 interaction inhibitor project, BLA reporter cells, FRET fluorescence (AID 651552); format: functional, cell-based
Beta Lactamase, sequence (Q932Y6 whole entry, the tested form may be a part): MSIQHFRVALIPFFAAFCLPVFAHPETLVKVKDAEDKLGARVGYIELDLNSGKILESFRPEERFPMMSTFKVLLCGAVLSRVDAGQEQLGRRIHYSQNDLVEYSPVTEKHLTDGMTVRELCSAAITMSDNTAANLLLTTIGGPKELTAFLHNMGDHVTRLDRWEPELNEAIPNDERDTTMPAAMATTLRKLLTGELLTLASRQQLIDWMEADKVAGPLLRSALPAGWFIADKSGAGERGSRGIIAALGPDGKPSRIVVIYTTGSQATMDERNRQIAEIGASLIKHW

[23] = molecular target: NACHT, LRR and PYD domains-containing protein 1 (Homo sapiens, UniProt Q9C000); test: NALP1 inhibitors in yeast, dose response, luminescent (AID 488860); format: functional
[24] = molecular target: T4, E3 ubiquitin-protein ligase XIAP (Homo sapiens, UniProt P98170); test: XIAP antagonists, biochemical, IAP family, fluorescence polarization (AID 1018); format: functional
T4 sequence (P98170 whole entry): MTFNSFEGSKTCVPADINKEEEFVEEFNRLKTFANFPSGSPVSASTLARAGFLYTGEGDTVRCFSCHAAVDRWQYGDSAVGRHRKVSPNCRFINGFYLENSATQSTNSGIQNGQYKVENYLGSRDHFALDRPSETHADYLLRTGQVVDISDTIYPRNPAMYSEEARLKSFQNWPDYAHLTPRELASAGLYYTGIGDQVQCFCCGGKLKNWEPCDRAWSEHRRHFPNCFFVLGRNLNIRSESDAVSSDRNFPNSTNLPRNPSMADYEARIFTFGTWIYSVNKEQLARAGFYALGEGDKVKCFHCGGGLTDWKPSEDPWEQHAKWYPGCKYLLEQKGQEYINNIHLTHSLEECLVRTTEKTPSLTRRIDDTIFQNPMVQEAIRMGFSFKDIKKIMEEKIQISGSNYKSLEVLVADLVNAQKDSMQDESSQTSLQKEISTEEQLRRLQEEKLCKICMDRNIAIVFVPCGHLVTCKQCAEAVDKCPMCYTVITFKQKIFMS

[25] = inhibition of K1F phage lysis, E. coli UTI89, bacterial capsule biogenesis inhibitors, alamar blue (AID 488966); format: functional
[26] = molecular target: T4, E3 ubiquitin-protein ligase XIAP; test: Counter Screen using XIAP-Bir3 for Chemical Antagonists of Bir1/2 domains of IAP-family anti-apoptotic proteins. [Related pubchem assays (depositor defined):AID1018, AID1449, AID1514, AID1638, AID1749, AID1750, AID488957, AID488963]
[27] = molecular target: DNA dC->dU-editing enzyme APOBEC-3A (Homo sapiens, UniProt P31941); test: APOBEC3A DNA deaminase inhibitors, dose response, biochemical (AID 504722); format: functional
DNA dC->dU-editing enzyme APOBEC-3A, sequence (P31941 whole entry): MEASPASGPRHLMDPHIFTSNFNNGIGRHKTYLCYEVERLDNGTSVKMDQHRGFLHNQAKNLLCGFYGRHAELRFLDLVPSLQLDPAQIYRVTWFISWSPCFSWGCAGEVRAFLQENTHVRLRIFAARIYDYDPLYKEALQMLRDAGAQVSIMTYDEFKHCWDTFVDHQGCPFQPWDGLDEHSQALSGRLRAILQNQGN

[28] = molecular target: DNA dC->dU-editing enzyme APOBEC-3G (Homo sapiens, UniProt Q9HC16); test: Dose Response confirmation of small molecule APOBEC3G DNA Deaminase Inhibitors via a fluorescence-based single-stranded DNA deaminase assay. [Related pubchem assays (depositor defined):AID493012, AID493028]; format: functional
DNA dC->dU-editing enzyme APOBEC-3G, sequence (Q9HC16 whole entry): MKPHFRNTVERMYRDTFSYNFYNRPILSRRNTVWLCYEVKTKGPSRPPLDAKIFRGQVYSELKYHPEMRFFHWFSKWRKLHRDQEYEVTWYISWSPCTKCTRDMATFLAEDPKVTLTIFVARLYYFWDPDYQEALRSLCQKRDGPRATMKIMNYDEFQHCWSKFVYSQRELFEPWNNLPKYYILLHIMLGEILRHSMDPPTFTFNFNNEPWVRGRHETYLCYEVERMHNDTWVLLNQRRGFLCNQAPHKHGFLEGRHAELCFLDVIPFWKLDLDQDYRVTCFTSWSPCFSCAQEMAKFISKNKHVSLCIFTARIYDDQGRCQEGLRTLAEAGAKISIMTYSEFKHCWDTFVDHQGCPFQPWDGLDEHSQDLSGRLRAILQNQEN

[29] = molecular target: Polyadenylate-binding protein 1 (Homo sapiens, UniProt P11940); test: PABP inhibition in translation initiation, SAR follow-up (AID 435018); format: functional
[30] = molecular target: Eukaryotic translation initiation factor 4H (Homo sapiens, UniProt Q15056); test: eIF4H inhibition in translation initiation, SAR follow-up (AID 435011); format: functional

In the case of `O=C(O)CCN1C(=O)/C(=C\c2cccc(Oc3ccccc3)c2)SC1=S`, the EC50 [1] is reported as > 150 µM (not active), the IC50 (Genome polyprotein) is reported as 37.4 µM (active) and the EC50 (BJ [2]) is reported as > 150 µM (not active). The EC50 (BJ [3]) was > 150 µM (inconclusive), the IC50 [4] was 26.8 µM (active) and the EC50 (BJ [5]) was > 150 µM (not active).

In the case of `NC(=O)C1CCN(c2ccc(S(=O)(=O)N3CCC(Cc4ccccc4)CC3)cn2)CC1`, the IC50 (Tumor necrosis factor) is reported as 12.4 µM (active), the IC50 (HEK293 [6]) is reported as > 20 µM (inactive) and the IC50 (HEK293 [7]) is reported as > 20 µM (inactive). The EC50 (HEK293 [8]) was 4.32 µM (active), the IC50 [9] was 9.14 µM (active) and the IC50 [10] was 5.76 µM (active). For the same compound, the IC50 (HEK293 [11]) was > 20 µM (inactive) and the IC50 (HEK293 [12]) was > 20 µM (inactive).

In the case of `CN(Cc1ccccc1)C(=O)c1nc[nH]c1C(=O)Nc1nccs1`, the EC50 [13] is reported as 10.1 µM (active), the EC50 [14] is reported as 16.6 µM (active) and the IC50 [15] is reported as 74.8 µM (active). The EC50 [16] was 15.8 µM (active).

For `O=C1CC(Sc2nnnn2-c2ccccc2)C(=O)N1c1cccc(Cl)c1` (stereo not given), the AC50 [17] was 8.88 µM (active), the AC50 [18] was 24.5 µM (active) and the IC50 [19] was 2.81 µM (active). For the same compound, the EC50 [20] was > 112 µM (not active), the EC50 [21] was 19.1 µM (active) and the IC50 (Saccharomyces cerevisiae) was 5.13 µM (active). The AC50 [22] was 8.53 µM (active), the IC50 (Beta-galactosidase) was > 66.6 µM (inactive) and the IC50 (Beta Lactamase) was 12.6 µM (inactive). For the same compound, the IC50 [23] was 5.83 µM (active).

For `COc1ccc(-c2nnc(NC(=O)c3cc(C)on3)s2)cc1`, the IC50 [24] was > 100 µM (not active), the IC50 [25] was > 75 µM (active) and the IC50 [26] was > 100 µM (inactive).

For `O=[N+]([O-])c1ccccc1/C=N/n1c(S)nnc1-c1ccccc1`, the IC50 [27] was > 100 µM (inactive) and the IC50 [28] was 4.25 µM (active).

In the case of `COc1cc(/C=N\NC(=O)c2ccccc2O)ccc1OCC(=O)Nc1ccc(C)c(C)c1`, the IC50 [29] is reported as > 100 µM (inactive) and the IC50 [30] is reported as 34.6 µM (active).
